Experimental data reported in patent US12297207B2, “Maytansinoid derivatives, conjugates thereof, and methods of use” (priority 2015, dated 2025).
Like-named read-outs stand apart in the source and are kept apart here.

Legend:
[1] = tested on: C4-2 (PSMA+) cells; test: In vitro cytotoxicity assay (CCK8 viability), C4-2 cells; type: cell-based; settings: for IC50: read-out: C4-2 IC50
Method: (§1) In this Example, the ability of various antibody-drug conjugates or their associated payloads to kill antigen-expressing tumor cells in vitro was assessed.
(§2) Ovcar3 (Muc16+) or C4-2 (PSMA+) cells were seeded in 96 well plates at 3000 (C42) cells per well in complete growth media and grown overnight. For cell viability curves, serially diluted conjugates or payloads were added to the cells at final concentrations ranging from 300 nM to 5 pM and incubated for 3 days. To measure viability, cells were incubated with CCK8 (Dojindo) for the final 1-3 hours and the absorbance at 450 nm (OD450) was determined on a Victor (Perkin Elmer). Background OD450 levels determined from digitonin ([…]) treated cells were subtracted from all wells and viability is expressed as a percentage of the untreated controls. IC50 values were determined from a four-parameter logistic equation over a 10-point response curve (GraphPad Prism). All conjugate curves and IC50 values are corrected for payload equivalents.

[2] = tested on: Ovcar3 (Muc16+) cells; test: In vitro cytotoxicity assay (CCK8 viability), Ovcar3 cells; type: cell-based; settings: for IC50: read-out: Ovcar3 IC50
Method: as §1, §2

[3] = tested on: T47D ductal carcinoma line (PRLR+); test: In vitro cytotoxicity assay (CellTiter-Glo), T47D cells; type: cell-based, human; settings: for IC50: 5 days
Method: The present example provides cytotoxicity assays for conjugates provided herein. To evaluate the ability of anti-PRLR antibodies conjugated with 63, 60, 77, and 78 to kill a PRLR expressing cell line, an in vitro cytotoxicity assay using a T47D ductal carcinoma line (ATCC, #HTB-133), which was previously determined to express >27,000 copies of human PRLR at its cell surface, was utilized.
For the assay, T47D cells were seeded onto white 96 well plates at 2,000 cells/well in media containing DMEM supplemented with 10% FBS, NEAA, and pencillin/streptomycinin (complete media). They were grown overnight at 37° C. in 5% CO2. To determine cell viability curves, the following day antibody drug conjugates, unconjugated antibodies, or free payloads were added to the cells at final serial dilutions ranging from 100 nM to 0.01 nM in complete medium and then incubated for an additional 5 days. Luciferase activity was detected after the addition of CellTiter-Glo™ reagent (Promega, G7571) to each well, which contains reagents to lyse the remaining viable cells to release their ATP, ATPase inhibitors to prevent degradation of the ATP, as well as luciferin and luciferase to catalyse the luminescent reaction. Viable cells prior to addition of CellTiter-Glo will be the only source of ATP since the dead cells in culture will not synthesis ATP and any of their released ATP will be destroyed via endogenous ATPases. Relative light units (RLUs) were measured on a Victor luminometer (PerkinElmer) and the results were determined using a four-parameter logistic equation over a 10-point response curve (GraphPad Prism). All measured values and calculated IC50 values were corrected for payload equivalents. All IC50 values are expressed in nM concentration and percent kill is reported for the highest concentration tested.

[4] = Table 5, payloads only, read-out: T47D IC50
[5] = Table 5, payloads only, highest concentration tested

Structure (SMILES) | C4-2 % kill ([1]; Table 5, payloads only) [%] | IC50 ([1]; Table 5, payloads only) [nM] | IC50 [3, 4] [nM] | T47D % kill [3, 5] [%] | further results
COc1cc2cc(c1Cl)N(C)C(=O)C[C@H](OC(=O)[C@H](C)N(C)C(=O)c1ccc(N)cc1C(F)(F)F)[C@]1(C)O[C@H]1[C@H](C)[C@@H]1C[C@@](O)(NC(=O)O1)[C@H](OC)/C=C/C=C(\C)C2 [Compound 31, Maytansin-N-methyl-L-alanine-(2-trifluoromethyl-4-amino)benzamide] | 82 | 0.1 | – | – | C4-2 % kill ([1]; Table 2, payloads only): 82%; IC50 ([1]; Table 2, payloads only): 0.1 nM; Ovcar3 % kill ([2]; Table 2, payloads only): 93%; IC50 ([2]; Table 2, payloads only): 0.04 nM; Ovcar3 % kill ([2]; Table 5, payloads only): 93%; IC50 ([2]; Table 5, payloads only): 0.04 nM
COc1cc2cc(c1Cl)N(C)C(=O)C[C@H](OC(=O)[C@H](C)N(C)C(=O)c1cc(F)c(N)cc1F)[C@]1(C)O[C@H]1[C@H](C)[C@@H]1C[C@@](O)(NC(=O)O1)[C@H](OC)/C=C/C=C(\C)C2 [Compound 39, Maytansin-N-methyl-L-alanine-N-(2,5-difluoro-4-amino)benzamide] | – | – | 0.02 | 70 | –
COc1cc2cc(c1Cl)N(C)C(=O)C[C@H](OC(=O)[C@H](C)N(C)C(=O)c1ccc(N)c(F)c1)[C@]1(C)O[C@H]1[C@H](C)[C@@H]1C[C@@](O)(NC(=O)O1)[C@H](OC)/C=C/C=C(\C)C2 [Compound 41, Maytansin-N-methyl-L-alanine-(3-fluoro-4-amino)benzamide] | – | – | 0.03 | 72 | –
COc1cc2cc(c1Cl)N(C)C(=O)C[C@H](OC(=O)[C@H](C)N(C)C(=O)c1ccc(N)c(Cl)c1)[C@]1(C)O[C@H]1[C@H](C)[C@@H]1C[C@@](O)(NC(=O)O1)[C@H](OC)/C=C/C=C(\C)C2 [Compound 43, Maytansin-N-methyl-L-alanine-(3-chloro-4-amino)benzamide] | – | – | 0.01 | 71 | –
COc1cc2cc(c1Cl)N(C)C(=O)CC(OC(=O)C(C)N(C)C(=O)c1ccc(N)c3cccnc13)C1(C)OC1C(C)C1CC(O)(NC(=O)O1)C(OC)C=CC=C(C)C2 [Compound 45, Maytansin-N-methyl-L-alanine-(5-amino-8-carboxyquinoline)carboxamide] | – | – | 3.73 | 72 | –
COc1cc2cc(c1Cl)N(C)C(=O)C[C@H](OC(=O)[C@H](C)N(C)C(=O)c1ccc(N)c(Br)c1)[C@]1(C)O[C@H]1[C@H](C)[C@@H]1C[C@@](O)(NC(=O)O1)[C@H](OC)/C=C/C=C(\C)C2 [Compound 47, Maytansin-N-methyl-L-alanine-(3-bromo-4-amino)benzamide] | – | – | 0.01 | 72 | –
COc1cc(C(=O)N(C)[C@@H](C)C(=O)O[C@H]2CC(=O)N(C)c3cc(cc(OC)c3Cl)C/C(C)=C/C=C/[C@@H](OC)[C@@]3(O)C[C@H](OC(=O)N3)[C@@H](C)[C@@H]3O[C@@]23C)ccc1N [Compound 49, Maytansin-N-methyl-L-alanine-(3-methoxy-4-amino)benzamide] | – | – | 0.06 | 70 | IC50 ([3]; corrected for payload equivalents, read-out: IC50 (cytotoxicity of T47D cells)): 0.03 nM; maximum percent killing ([3]; T47D cells, highest concentration tested): 69%
COc1cc2cc(c1Cl)N(C)C(=O)C[C@H](OC(=O)[C@H](C)N(C)C(=O)c1ccc(N)cc1C)[C@]1(C)O[C@H]1[C@H](C)[C@@H]1C[C@@](O)(NC(=O)O1)[C@H](OC)/C=C/C=C(\C)C2 [Compound 51, Maytansin-N-methyl-L-alanine-(2-methyl-4-amino)benzamide] | – | – | 0.49 | 72 | –
COc1cc2cc(c1Cl)N(C)C(=O)CC(OC(=O)C(C)N(C)C(=O)c1ccc(N)c(C)c1)C1(C)OC1C(C)C1CC(O)(NC(=O)O1)C(OC)C=CC=C(C)C2 [Compound 53, Maytansin-N-methyl-L-alanine-(3-methyl-4-amino)benzamide] | – | – | 0.2 | 72 | –
COc1cc2cc(c1Cl)N(C)C(=O)C[C@H](OC(=O)[C@H](C)N(C)C(=O)c1ccc(N)c3ncccc13)[C@]1(C)O[C@H]1[C@H](C)[C@@H]1C[C@@](O)(NC(=O)O1)[C@H](OC)/C=C/C=C(\C)C2 [Compound 55, Maytansin-N-methyl-L-alanine-(8-amino-5-carboxyquinoline)carboxamide] | – | – | 0.18 | 75 | –
COc1ccc(N)cc1C(=O)N(C)[C@@H](C)C(=O)O[C@H]1CC(=O)N(C)c2cc(cc(OC)c2Cl)C/C(C)=C/C=C/[C@@H](OC)[C@@]2(O)C[C@H](OC(=O)N2)[C@@H](C)[C@@H]2O[C@@]12C [Compound 65, Maytansin-N-methyl-L-alanine-N-(2-methoxy-5-amino)benzamide] | – | – | 1.13 | 72 | –
COc1ccc(C(=O)N(C)[C@@H](C)C(=O)O[C@H]2CC(=O)N(C)c3cc(cc(OC)c3Cl)C/C(C)=C/C=C/[C@@H](OC)[C@@]3(O)C[C@H](OC(=O)N3)[C@@H](C)[C@@H]3O[C@@]23C)cc1N [Compound 67, Maytansin-N-methyl-L-alanine-N-(3-amino-4-methoxy)benzamide] | – | – | 0.19 | 71 | –
COc1cc2cc(c1Cl)N(C)C(=O)C[C@H](OC(=O)[C@H](C)N(C)C(=O)c1cc(N)cc(F)c1)[C@]1(C)O[C@H]1[C@H](C)[C@@H]1C[C@@](O)(NC(=O)O1)[C@H](OC)/C=C/C=C(\C)C2 [Compound 69, Maytansin-N-methyl-L-alanine-N-(3-amino-5-fluoro)benzamide] | – | – | 0.39 | 73 | –
COc1cc2cc(c1Cl)N(C)C(=O)CC(OC(=O)C(C)N(C)C(=O)c1cc(N)ccc1F)C1(C)OC1C(C)C1CC(O)(NC(=O)O1)C(OC)C=CC=C(C)C2 [Compound 71, Maytansin-N-methyl-L-alanine-N-(2-fluoro-5-amino)benzamide] | – | – | 0.73 | 68 | –
COc1cc2cc(c1Cl)N(C)C(=O)C[C@H](OC(=O)[C@H](C)N(C)C(=O)c1cccc(N)c1)[C@]1(C)O[C@H]1[C@H](C)[C@@H]1C[C@@](O)(NC(=O)O1)[C@H](OC)/C=C/C=C(\C)C2 [Compound 73, Maytansin-N-methyl-L-alanine-N-(3-amino)benzamide] | – | – | 0.57 | 73 | –
COc1cc2cc(c1Cl)N(C)C(=O)C[C@H](OC(=O)[C@H](C)N(C)C(=O)c1ccc(N)c(S(C)(=O)=O)c1)[C@]1(C)O[C@H]1[C@H](C)[C@@H]1C[C@@](O)(NC(=O)O1)[C@H](OC)/C=C/C=C(\C)C2 [Compound 80, Maytansin-N-methyl-L-alanine-N-(3-methylsulfonyl-4-amino)benzamide] | 91 | 1.3 | – | – | –
COc1cc2cc(c1Cl)N(C)C(=O)CC(OC(=O)C(C)N(C)C(=O)c1ccc(N)c(O)c1)C1(C)OC1C(C)C1CC(O)(NC(=O)O1)C(OC)C=CC=C(C)C2 [Compound 82, Maytansin-N-methyl-L-alanine-N-(3-hydroxy-4-amino)benzamide] | 93 | 19.9 | – | – | –
COc1cc2cc(c1Cl)N(C)C(=O)C[C@H](OC(=O)[C@H](C)N(C)C(=O)c1ccccc1N)[C@]1(C)O[C@H]1[C@H](C)[C@@H]1C[C@@](O)(NC(=O)O1)[C@H](OC)/C=C/C=C(\C)C2 [Compound 84, Maytansin-N-methyl-L-alanine-N-(2-amino)benzamide] | 88 | 0.07 | – | – | –
COc1ccc(C(=O)N(C)[C@@H](C)C(=O)O[C@H]2CC(=O)N(C)c3cc(cc(OC)c3Cl)C/C(C)=C/C=C/[C@@H](OC)[C@@]3(O)C[C@H](OC(=O)N3)[C@@H](C)[C@@H]3O[C@@]23C)c(N)c1 [Compound 86, Maytansin-N-methyl-L-alanine-N-(4-methoxy-2-amino)benzamide] | 90 | 0.73 | – | – | –
COc1cc2cc(c1Cl)N(C)C(=O)C[C@H](OC(=O)[C@H](C)N(C)C(=O)c1ccc(N)c(N3CCOCC3)c1)[C@]1(C)O[C@H]1[C@H](C)[C@@H]1C[C@@](O)(NC(=O)O1)[C@H](OC)/C=C/C=C(\C)C2 [Compound 88, Maytansin-N-methyl-L-alanine-N-(3-morpholino-4-amino)benzamide] | 89 | 0.05 | – | – | –
COc1cc2cc(c1Cl)N(C)C(=O)C[C@H](OC(=O)[C@H](C)N(C)C(=O)c1ccc(N)c(NC(C)=O)c1)[C@]1(C)O[C@H]1[C@H](C)[C@@H]1C[C@@](O)(NC(=O)O1)[C@H](OC)/C=C/C=C(\C)C2 [Compound 90, Maytansin-N-methyl-L-alanine-N-(3-acetamido-4-amino)benzamide] | 86 | > 100 | – | – | –
